Laboratory results as given in ChEMBL document CHEMBL1136305, “Structure-activity relationships within a series of caspase inhibitors: effect of leaving group modifications” (Bioorg Med Chem Lett, 2003).

How the values were obtained:
[1] = molecular target: T1, Caspase-1 (Mus musculus) (UniProt P29452); assay: Inhibitory activity against murine caspase-1
T1 sequence (whole entry): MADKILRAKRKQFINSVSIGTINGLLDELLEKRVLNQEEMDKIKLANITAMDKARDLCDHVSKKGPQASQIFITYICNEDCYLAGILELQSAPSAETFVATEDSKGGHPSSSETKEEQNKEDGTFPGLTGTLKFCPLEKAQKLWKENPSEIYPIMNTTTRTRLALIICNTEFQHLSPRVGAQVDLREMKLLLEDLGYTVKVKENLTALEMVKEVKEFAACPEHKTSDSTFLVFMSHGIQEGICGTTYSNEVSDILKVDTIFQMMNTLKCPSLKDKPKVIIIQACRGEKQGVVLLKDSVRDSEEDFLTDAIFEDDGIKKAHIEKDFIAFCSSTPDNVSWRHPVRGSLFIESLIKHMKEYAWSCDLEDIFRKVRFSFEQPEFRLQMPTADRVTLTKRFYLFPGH

[2] = molecular target: T2, Caspase-3 (Homo sapiens) (UniProt P42574); assay: Inhibitory activity against caspase-3 (Csp-3)
T2 sequence (whole entry): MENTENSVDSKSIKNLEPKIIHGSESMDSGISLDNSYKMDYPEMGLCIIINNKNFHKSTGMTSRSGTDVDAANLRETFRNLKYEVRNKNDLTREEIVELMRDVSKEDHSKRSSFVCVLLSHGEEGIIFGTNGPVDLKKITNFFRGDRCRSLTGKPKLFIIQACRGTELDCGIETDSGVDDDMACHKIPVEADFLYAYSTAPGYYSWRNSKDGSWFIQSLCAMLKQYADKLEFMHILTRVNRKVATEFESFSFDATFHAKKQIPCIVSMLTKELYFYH

[3] = test system: Jurkat; assay: Cellular assay in a Fas-induced model of apoptosis in Jurkat cells; assay type: functional, cell-based; settings: Homo sapiens
[4] = molecular target: T3, Caspase-6 (Homo sapiens) (UniProt P55212); assay: Inhibitory activity against caspase-6 (Csp-6)
T3 sequence (whole entry): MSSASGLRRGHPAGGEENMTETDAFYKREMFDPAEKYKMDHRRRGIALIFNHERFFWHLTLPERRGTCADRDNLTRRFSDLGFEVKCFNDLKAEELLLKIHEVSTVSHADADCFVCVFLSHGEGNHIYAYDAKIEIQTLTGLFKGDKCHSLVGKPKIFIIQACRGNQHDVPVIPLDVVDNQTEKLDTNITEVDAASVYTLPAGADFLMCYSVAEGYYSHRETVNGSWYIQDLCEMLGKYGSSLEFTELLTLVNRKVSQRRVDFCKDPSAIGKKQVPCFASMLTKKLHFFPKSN

[5] = molecular target: Caspase-8 (Homo sapiens) (UniProt Q14790); assay: Inhibitory activity against caspase-8 (Csp-8)
Sequence of Caspase-8 (Homo sapiens) (Q14790 217-374 limits assumed): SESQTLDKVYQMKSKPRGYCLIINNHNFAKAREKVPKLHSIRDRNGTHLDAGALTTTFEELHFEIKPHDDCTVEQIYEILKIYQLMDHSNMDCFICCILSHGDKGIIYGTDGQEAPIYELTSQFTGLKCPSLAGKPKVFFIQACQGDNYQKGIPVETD
Sequence of Caspase-8 (Homo sapiens) (Q14790 385-479 limits assumed): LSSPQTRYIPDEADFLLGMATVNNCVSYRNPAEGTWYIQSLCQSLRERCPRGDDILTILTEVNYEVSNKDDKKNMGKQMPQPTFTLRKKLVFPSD

[6] = (§1) Cellular assay in a model of neuronal apoptosis involving cortical neurons exposed to concanavalin A; assay type: functional
[7] = species: Homo sapiens; assay: Cellular assay in an inflammation model measuring IL1-beta secretion from isolated human monocytes induced with Staph A; assay type: functional
[8] = molecular target: T4, Caspase-3 (Homo sapiens, UniProt P42574); assay: Binding affinity against caspase-3 (Csp-3)
T4 sequence (P42574 whole entry): T2 sequence (whole entry)

[9] = as §1; assay type: functional; remark: listed apart in the source
[10] = molecular target: T5, Caspase-1 (Mus musculus, UniProt P29452); assay: Binding affinity against Murine caspase-1 (mCsp-1)
T5 sequence (P29452 whole entry): T1 sequence (whole entry)

[11] = molecular target: T3, Caspase-6 (Homo sapiens); assay: Inhibitory activity against Caspase-6 (Csp-6); assay type: functional

Compound | k3/Ki [1] | k3/Ki [2] | IC50 [3] | k3/Ki [4] | k3/Ki [5] | IC50 [6] | IC50 [7] | Ki [8] | IC50 [9] | Ki [10] | k3/Ki [11]
CC(C)[C@H](NC(=O)COc1cccc2ccccc12)C(=O)N[C@@H](CC(=O)O)C(=O)COc1ccccc1 | 3630 M⁻¹ s⁻¹ | 19200 M⁻¹ s⁻¹ | 14 µM | 2400 M⁻¹ s⁻¹ | 4260 M⁻¹ s⁻¹ | 38 µM | 11.2 µM | – | – | – | –
CC(C)[C@H](NC(=O)COc1cccc2ccccc12)C(=O)N[C@@H](CC(=O)O)C(=O)COc1cccc2ccccc12 | 354000 M⁻¹ s⁻¹ | 1.96e+06 M⁻¹ s⁻¹ | > 100 µM | – | – | – | 19 µM | 0.0071 µM | 2.65 µM | 0.07 µM | –
CC(C)[C@H](NC(=O)COc1cccc2ccccc12)C(=O)N[C@@H](CC(=O)O)C(=O)CF | 129000 M⁻¹ s⁻¹ | 207000 M⁻¹ s⁻¹ | 0.24 µM | – | 71700 M⁻¹ s⁻¹ | – | 0.95 µM | – | 3.05 µM | – | 36800 M⁻¹ s⁻¹
CC(C)[C@H](NC(=O)COc1cccc2ccccc12)C(=O)N[C@@H](CC(=O)O)C(=O)COc1ccc(-c2ccccc2)cc1 | 1550 M⁻¹ s⁻¹ | 9990 M⁻¹ s⁻¹ | 87.9 µM | 270 M⁻¹ s⁻¹ | 1310 M⁻¹ s⁻¹ | – | 38.7 µM | 0.1 µM | > 50 µM | 2.68 µM | –
CC(C)[C@H](NC(=O)COc1cccc2ccccc12)C(=O)N[C@@H](CC(=O)O)C(=O)COc1ccc(F)c(F)c1F | 11900 M⁻¹ s⁻¹ | 35800 M⁻¹ s⁻¹ | 35.8 µM | 253 M⁻¹ s⁻¹ | 769 M⁻¹ s⁻¹ | – | 20.6 µM | – | > 50 µM | – | –
CC(C)[C@H](NC(=O)COc1cccc2ccccc12)C(=O)N[C@@H](CC(=O)O)C(=O)COc1ccc([N+](=O)[O-])cc1 | 6130 M⁻¹ s⁻¹ | 8400 M⁻¹ s⁻¹ | > 100 µM | 117 M⁻¹ s⁻¹ | 137 M⁻¹ s⁻¹ | – | 22.8 µM | – | 13.5 µM | – | –
CC(C)[C@H](NC(=O)COc1cccc2ccccc12)C(=O)N[C@@H](CC(=O)O)C(=O)COc1ccc(C#N)cc1 | 3720 M⁻¹ s⁻¹ | 10200 M⁻¹ s⁻¹ | > 100 µM | 46 M⁻¹ s⁻¹ | 48 M⁻¹ s⁻¹ | – | 26.7 µM | – | > 50 µM | – | –
CC(C)[C@H](NC(=O)COc1cccc2ccccc12)C(=O)N[C@@H](CC(=O)O)C(=O)COc1c(F)c(F)cc(F)c1F | 77500 M⁻¹ s⁻¹ | 268000 M⁻¹ s⁻¹ | 4.5 µM | 78900 M⁻¹ s⁻¹ | 30200 M⁻¹ s⁻¹ | – | 6.25 µM | – | 2.17 µM | – | –
CC(C)[C@H](NC(=O)COc1cccc2ccccc12)C(=O)N[C@@H](CC(=O)O)C(=O)COc1ccccc1C(F)(F)F | 5630 M⁻¹ s⁻¹ | 20000 M⁻¹ s⁻¹ | > 100 µM | 494 M⁻¹ s⁻¹ | 75 M⁻¹ s⁻¹ | – | 17.3 µM | – | > 50 µM | – | –
CC(C)[C@H](NC(=O)COc1cccc2ccccc12)C(=O)N[C@@H](CC(=O)O)C(=O)COc1ccc([N+](=O)[O-])cc1F | 12300 M⁻¹ s⁻¹ | 36500 M⁻¹ s⁻¹ | 30.3 µM | 1770 M⁻¹ s⁻¹ | 1850 M⁻¹ s⁻¹ | – | 15.8 µM | – | 6.2 µM | – | –
CC(C)[C@H](NC(=O)COc1cccc2ccccc12)C(=O)N[C@@H](CC(=O)O)C(=O)COc1ccc(Oc2ccc(C(F)(F)F)cc2)cc1 | 1540 M⁻¹ s⁻¹ | 6930 M⁻¹ s⁻¹ | 9.3 µM | 625 M⁻¹ s⁻¹ | 1120 M⁻¹ s⁻¹ | – | 24.9 µM | – | > 50 µM | – | –
CC(C)[C@H](NC(=O)COc1cccc2ccccc12)C(=O)N[C@@H](CC(=O)O)C(=O)COc1ccc2ccccc2c1 | 263 M⁻¹ s⁻¹ | 7520 M⁻¹ s⁻¹ | > 100 µM | – | – | – | 15.9 µM | 0.09 µM | > 50 µM | 3.17 µM | –
